Test system: 521955-158-R2-J5-PDC complex spheroid growth
Test: Anticancer human tumor 521955-158-R2-J5-PDC patient-derived pancreatic carcinoma cell line growth inhibition [AhR]
Conditions: for viability, T/C: stronger effect = lower value
How it was run: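 Agents were dosed in half-log steps down from roughly clinical Cmax, or from 10 microM where Cmax was unknown, alone and with AhR antagonists. Read-out: percent test/control growth of tumor spheroids containing HUVEC and MSC stromal cells.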

[1] = curve of first compound, second compound 0.1 µM
[2] = curve of first compound, second compound 0.316 µM
[3] = curve of first compound, second compound 1 µM
[4] = curve of first compound, second compound 3.16 µM
[5] = curve of first compound, second compound 10 µM
[6] = second compound 0.1 µM, first compound 0.0316 µM
[7] = second compound 0.1 µM, first compound 0.1 µM
[8] = second compound 0.1 µM, first compound 0.316 µM
[9] = second compound 0.1 µM, first compound 1 µM
[10] = second compound 0.1 µM, first compound 3.16 µM
[11] = second compound 0.1 µM, first compound 10 µM
[12] = second compound 0.316 µM, first compound 0.0316 µM
[13] = second compound 0.316 µM, first compound 0.1 µM
[14] = second compound 0.316 µM, first compound 0.316 µM
[15] = second compound 0.316 µM, first compound 1 µM
[16] = second compound 0.316 µM, first compound 3.16 µM
[17] = second compound 0.316 µM, first compound 10 µM
[18] = second compound 1 µM, first compound 0.0316 µM
[19] = second compound 1 µM, first compound 0.1 µM
[20] = second compound 1 µM, first compound 0.316 µM
[21] = second compound 1 µM, first compound 1 µM
[22] = second compound 1 µM, first compound 3.16 µM
[23] = second compound 1 µM, first compound 10 µM
[24] = second compound 3.16 µM, first compound 0.0316 µM
[25] = second compound 3.16 µM, first compound 0.1 µM
[26] = second compound 3.16 µM, first compound 0.316 µM
[27] = second compound 3.16 µM, first compound 1 µM
[28] = second compound 3.16 µM, first compound 3.16 µM
[29] = second compound 3.16 µM, first compound 10 µM
[30] = second compound 10 µM, first compound 0.0316 µM
[31] = second compound 10 µM, first compound 0.1 µM
[32] = second compound 10 µM, first compound 0.316 µM
[33] = second compound 10 µM, first compound 1 µM
[34] = second compound 10 µM, first compound 3.16 µM
[35] = second compound 10 µM, first compound 10 µM
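Throughout, for viability, T/C: spheroids mix tumor cells with HUVEC endothelium and human MSC stroma; luminescence taken as viability surrogate after a week of drug exposure.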

Work on `NS(=O)(=O)OCC1CC(n2ccc3c(NC4CCc5ccccc54)ncnc32)CC1O` (stereo not drawn) + CC(CO)NC(=O)c1cc(-c2ccc(Cl)cc2)nn(-c2cnn(C)c2)c1=O yielded an IC50 [1] of 0.486 µM, an IC50 [2] of 0.484 µM and an IC50 [3] of 0.492 µM. For the same compound, the IC50 [4] was 0.371 µM, the IC50 [5] was 0.232 µM and the viability, T/C [6] was 87.2%. It also gave a viability, T/C [7] of 92.5%, a viability, T/C [8] of 61.7% and a viability, T/C [9] of 29.5%. For the same compound, the viability, T/C [10] was 20.6%, the viability, T/C [11] was 18.7% and the viability, T/C [12] was 93.1%. It also gave a viability, T/C [13] of 90.2%, a viability, T/C [14] of 61.1% and a viability, T/C [15] of 30.5%. The viability, T/C [16] was 19.5%, the viability, T/C [17] was 18.3% and the viability, T/C [18] was 90.5%. It also gave a viability, T/C [19] of 97.7%, a viability, T/C [20] of 62% and a viability, T/C [21] of 31%. For the same compound, the viability, T/C [22] was 21.6%, the viability, T/C [23] was 20.7% and the viability, T/C [24] was 85.5%. The viability, T/C [25] was 83.1%, the viability, T/C [26] was 49.8% and the viability, T/C [27] was 31.3%. For the same compound, the viability, T/C [28] was 20.8%, the viability, T/C [29] was 14.7% and the viability, T/C [30] was 68.8%. For the same compound, the viability, T/C [31] was 66%, the viability, T/C [32] was 41.6% and the viability, T/C [33] was 31.2%. The viability, T/C [34] was 19.2% and the viability, T/C [35] was 15.2%.

With `CC(CO)NC(=O)c1cc(-c2ccc(Cl)cc2)nn(-c2cnn(C)c2)c1=O` (stereo not drawn) the viability, T/C (compound 10 µM) was 87.4% [middle of 19 runs] and the IC50 (compound alone, run of 05/31/2022) was over 10 µM.

In the case of `CC(C)CC(NC(=O)C(Cc1ccccc1)NC(=O)c1cnccn1)B(O)O` (stereo not drawn) + Cc1ccccc1N=Nc1ccc(NC(=O)c2ccnn2C)c(C)c1, the IC50 [1] is reported as 0.0161 µM, the IC50 [2] is reported as 0.0163 µM and the IC50 [3] is reported as 0.0173 µM. It also gave an IC50 [4] of 0.0151 µM, an IC50 [5] of 0.00876 µM and a viability, T/C (second compound 0.1 µM, first compound 0.000949 µM) of 91.3%. It also gave a viability, T/C (second compound 0.1 µM, first compound 0.003 µM) of 77.6%, a viability, T/C (second compound 0.1 µM, first compound 0.00949 µM) of 105% and a viability, T/C (second compound 0.1 µM, first compound 0.03 µM) of 0.49%. It also gave a viability, T/C (second compound 0.1 µM, first compound 0.0949 µM) of 0.24%, a viability, T/C (second compound 0.1 µM, first compound 0.3 µM) of 1.83% and a viability, T/C (second compound 0.316 µM, first compound 0.000949 µM) of 95.3%. The viability, T/C (second compound 0.316 µM, first compound 0.003 µM) was 89.4%, the viability, T/C (second compound 0.316 µM, first compound 0.00949 µM) was 97.4% and the viability, T/C (second compound 0.316 µM, first compound 0.03 µM) was 0.67%. It also gave a viability, T/C (second compound 0.316 µM, first compound 0.0949 µM) of 0.36%, a viability, T/C (second compound 0.316 µM, first compound 0.3 µM) of 0.41% and a viability, T/C (second compound 1 µM, first compound 0.000949 µM) of 127%. The viability, T/C (second compound 1 µM, first compound 0.003 µM) was 99.8%, the viability, T/C (second compound 1 µM, first compound 0.00949 µM) was 101% and the viability, T/C (second compound 1 µM, first compound 0.03 µM) was 2.56%. It also gave a viability, T/C (second compound 1 µM, first compound 0.0949 µM) of 2.56%, a viability, T/C (second compound 1 µM, first compound 0.3 µM) of 0.41% and a viability, T/C (second compound 3.16 µM, first compound 0.000949 µM) of 146%. For the same compound, the viability, T/C (second compound 3.16 µM, first compound 0.003 µM) was 119%, the viability, T/C (second compound 3.16 µM, first compound 0.00949 µM) was 82.3% and the viability, T/C (second compound 3.16 µM, first compound 0.03 µM) was 1.3%. For the same compound, the viability, T/C (second compound 3.16 µM, first compound 0.0949 µM) was 0.26%, the viability, T/C (second compound 3.16 µM, first compound 0.3 µM) was 0.34% and the viability, T/C (second compound 10 µM, first compound 0.000949 µM) was 142%. The viability, T/C (second compound 10 µM, first compound 0.003 µM) was 153%, the viability, T/C (second compound 10 µM, first compound 0.00949 µM) was 42.7% and the viability, T/C (second compound 10 µM, first compound 0.03 µM) was 1.3%. The viability, T/C (second compound 10 µM, first compound 0.0949 µM) was 3.29% and the viability, T/C (second compound 10 µM, first compound 0.3 µM) was 0.52%.

`Cc1cncc(-c2nc(NCCc3c[nH]c4ccccc34)c3ncn(C(C)C)c3n2)c1` showed an IC50 (compound alone, run of 06/06/2022) of over 10 µM.

Work on `COc1cc(Nc2ncc3c(n2)-c2ccc(Cl)cc2C(c2c(F)cccc2OC)=NC3)ccc1C(=O)O` + Cc1cncc(-c2nc(NCCc3c[nH]c4ccccc34)c3ncn(C(C)C)c3n2)c1 yielded an IC50 [1] of over 10 µM, an IC50 [2] of over 10 µM and an IC50 [3] of over 10 µM. For the same compound, the IC50 [4] was over 10 µM, the IC50 [5] was over 10 µM and the viability, T/C [6] was 100%. For the same compound, the viability, T/C [7] was 78.8%, the viability, T/C [8] was 78.8% and the viability, T/C [9] was 72.3%. It also gave a viability, T/C [10] of 80.1%, a viability, T/C [11] of 74.2% and a viability, T/C [12] of 99.7%. The viability, T/C [13] was 79.9%, the viability, T/C [14] was 87.1% and the viability, T/C [15] was 73.1%. The viability, T/C [16] was 68%, the viability, T/C [17] was 60.9% and the viability, T/C [18] was 109%. The viability, T/C [19] was 88.5%, the viability, T/C [20] was 103% and the viability, T/C [21] was 83.2%. For the same compound, the viability, T/C [22] was 70.7%, the viability, T/C [23] was 70.4% and the viability, T/C [24] was 127%. It also gave a viability, T/C [25] of 107%, a viability, T/C [26] of 97.5% and a viability, T/C [27] of 90.8%. It also gave a viability, T/C [28] of 83%, a viability, T/C [29] of 76.7% and a viability, T/C [30] of 125%. For the same compound, the viability, T/C [31] was 88.4%, the viability, T/C [32] was 76.2% and the viability, T/C [33] was 84.3%. The viability, T/C [34] was 62.8% and the viability, T/C [35] was 81.3%.

For `CC(C)c1c(-c2ccccc2)nc2c(C#N)c[nH]n2c1=O` + CC(CO)NC(=O)c1cc(-c2ccc(Cl)cc2)nn(-c2cnn(C)c2)c1=O, the IC50 [1] was over 10 µM, the IC50 [2] was over 10 µM and the IC50 [3] was over 10 µM. It also gave an IC50 [4] of over 10 µM, an IC50 [5] of over 10 µM and a viability, T/C [6] of 91%. The viability, T/C [7] was 83.6%, the viability, T/C [8] was 89.4% and the viability, T/C [9] was 91.4%. It also gave a viability, T/C [10] of 66.3%, a viability, T/C [11] of 78.2% and a viability, T/C [12] of 80.1%. The viability, T/C [13] was 103%, the viability, T/C [14] was 75.7% and the viability, T/C [15] was 86.1%. It also gave a viability, T/C [16] of 73.3%, a viability, T/C [17] of 88.5% and a viability, T/C [18] of 82.1%. It also gave a viability, T/C [19] of 89.4%, a viability, T/C [20] of 93.5% and a viability, T/C [21] of 94.2%. It also gave a viability, T/C [22] of 70.7%, a viability, T/C [23] of 51.9% and a viability, T/C [24] of 98.5%. The viability, T/C [25] was 93.7%, the viability, T/C [26] was 97% and the viability, T/C [27] was 96.5%. For the same compound, the viability, T/C [28] was 72%, the viability, T/C [29] was 70% and the viability, T/C [30] was 84.5%. It also gave a viability, T/C [31] of 81.2%, a viability, T/C [32] of 86.4% and a viability, T/C [33] of 71.8%. The viability, T/C [34] was 54.6% and the viability, T/C [35] was 54.7%.

With `CC1(C)CCC(CN2CCN(c3ccc(C(=O)NS(=O)(=O)c4ccc(NCC5CCOCC5)c([N+](=O)[O-])c4)c(Oc4cnc5[nH]ccc5c4)c3)CC2)=C(c2ccc(Cl)cc2)C1` + Cc1cncc(-c2nc(NCCc3c[nH]c4ccccc34)c3ncn(C(C)C)c3n2)c1 the IC50 [1] was over 10 µM, the IC50 [2] was over 10 µM and the IC50 [3] was over 10 µM. It also gave an IC50 [4] of over 10 µM, an IC50 [5] of over 10 µM and a viability, T/C [6] of 110%. The viability, T/C [7] was 111%, the viability, T/C [8] was 102% and the viability, T/C [9] was 104%. The viability, T/C [10] was 92.8%, the viability, T/C [11] was 74.7% and the viability, T/C [12] was 104%. For the same compound, the viability, T/C [13] was 109%, the viability, T/C [14] was 119% and the viability, T/C [15] was 105%. The viability, T/C [16] was 99.9%, the viability, T/C [17] was 79.5% and the viability, T/C [18] was 111%. The viability, T/C [19] was 124%, the viability, T/C [20] was 121% and the viability, T/C [21] was 111%. The viability, T/C [22] was 111%, the viability, T/C [23] was 76.3% and the viability, T/C [24] was 146%. For the same compound, the viability, T/C [25] was 123%, the viability, T/C [26] was 133% and the viability, T/C [27] was 120%. It also gave a viability, T/C [28] of 113%, a viability, T/C [29] of 94.9% and a viability, T/C [30] of 148%. The viability, T/C [31] was 147%, the viability, T/C [32] was 138% and the viability, T/C [33] was 156%. It also gave a viability, T/C [34] of 118% and a viability, T/C [35] of 102%.

From PubChem BioAssay AID1918998 (Molecular Pharmacology Branch, DTP, NCI, 2023)
